Measured values reported in patent US20040057908A1, “Oral compositions and use thereof” (priority 2003, published 2004).

system: Mutans Streptococci Strains; assay: MIC and MBC, broth dilution, all strains stated together; type: cell-based, S. mutans (GS-5 and UA159) and S. sobrinus 6715; details: Streptococcus mutans
Method: The minimum inhibitory concentration (MIC) and minimum bactericidal concentration (MBC) were determined for each test compound according to the National Committee for Clinical Laboratory Standards guidelines (Tentative standard M26-T, 1992; NCCLS Publication No. M7-A5, 2000) and Koo et al. (2000b). The broth microdilution and macrodilution methods (in TSB) were used for the antibacterial tests. The starting inoculum was 5×10^5 CFU/ml and the concentrations of test compounds ranged from 15.6 to 500 μM (two-fold dilutions). The MICs and MBCs were determined in quadruplicate in at least 3 different experiments.

SMILES	MIC [µM]
O=C(O)c1ccccc1 [Benzoic acid]	> 500
COc1cc(C=O)cc(OC)c1O [Syringaldehyde]	> 500

same assay, conditions: Streptococcus mutans; all strains tested (S. mutans GS-5, UA159, S. sobrinus 6715); read-out: MIC

SMILES	MIC [µM]
O=c1cc(-c2ccc(O)c(O)c2)oc2cc(O)cc(O)c12 [Luteolin]	> 500
COc1cc(/C=C/C(=O)O)ccc1O [Ferulic acid]	> 500
O=C(O)/C=C/c1ccc(O)c(O)c1 [Caffeic acid]	> 500

Now from value to molecule:

MIC [µM]	SMILES
> 500	COc1cc(C=O)ccc1O [Vanillin]
> 500	O=C(O)/C=C/c1ccc(O)cc1 [p-Coumaric acid]
